The results in this text go back to publication PMC8113725, “Structure–activity relationship of ipglycermide binding to phosphoglycerate mutases” (The Journal of Biological Chemistry, 2021).

Bridge positions count the residues as written; N and C are the ends. Square brackets hold non-standard residues; d marks the D form. Peptide text beside a SMILES is read from it.

This test addresses D. immitis iPGM (Dirofilaria immitis, UniProt F4ZE01). Put plainly: biochemical. To be noted: Di iPGM Ave IC50 (M).
One may read the IC50 as the midpoint of a concentration-inhibition curve. With `CC(C)C[C@H](NC(=O)[C@H](Cc1ccc(O)cc1)NC(=O)[C@@H]1CSCC(=O)N[C@H](Cc2ccc(O)cc2)C(=O)N[C@@H](CC(=O)O)C(=O)N[C@@H](Cc2ccc(F)cc2)C(=O)N2CCC[C@H]2C(=O)NCC(=O)N[C@@H](CC(=O)O)C(=O)N[C@@H](Cc2ccccc2)C(=O)N1)C(=O)N[C@@H](Cc1ccc(O)cc1)C(=O)NCC(=O)N[C@H](C(=O)N[C@@H](CS)C(N)=O)[C@@H](C)O`, the half-maximal inhibitory concentration (IC50) was found to be 1.41e-09 M. For `CC(C)C[C@H](NC(=O)[C@H](Cc1ccc(O)cc1)NC(=O)[C@@H]1CSCC(=O)N[C@H](Cc2ccc(O)cc2)C(=O)N[C@@H](CC(=O)O)C(=O)N[C@@H](Cc2ccccc2)C(=O)N2CCC[C@H]2C(=O)NCC(=O)N[C@@H](CC(=O)O)C(=O)N[C@@H](Cc2ccc(O)cc2)C(=O)N1)C(=O)N[C@@H](Cc1ccc(O)cc1)C(=O)NCC(=O)N[C@H](C(=O)N[C@@H](CS)C(N)=O)[C@@H](C)O` [Ce-2 Y3F] ({CH2CO}-[dY]DFPGDYCYLYGTC-NH2; thioether N-8), 2.42e-09 M corresponded to half-maximal inhibition (IC50).

Turning to `CC(C)C[C@H](NC(=O)[C@H](Cc1ccc(O)cc1)NC(=O)[C@@H]1CSCC(=O)N[C@H](Cc2ccc(O)cc2)C(=O)N[C@@H](CCC(=O)O)C(=O)N[C@@H](Cc2ccc(O)cc2)C(=O)N2CCC[C@H]2C(=O)NCC(=O)N[C@@H](CC(=O)O)C(=O)N[C@@H](Cc2ccc(O)cc2)C(=O)N1)C(=O)N[C@@H](Cc1ccc(O)cc1)C(N)=O` [Ce-2d D2E], half-maximal inhibition (IC50) was put at 9.99e-08 M. On to `CC(C)C[C@H](NC(=O)[C@H](Cc1ccc(O)cc1)NC(=O)[C@@H]1CSCC(=O)N[C@H](Cc2ccc(O)cc2)C(=O)NCC(=O)N[C@@H](Cc2ccc(O)cc2)C(=O)N2CCC[C@H]2C(=O)NCC(=O)N[C@@H](CC(=O)O)C(=O)N[C@@H](Cc2ccc(O)cc2)C(=O)N1)C(=O)N[C@@H](Cc1ccc(O)cc1)C(N)=O` [Ce-2d D2G], for which the IC50 amounted to 1.32e-06 M. For `CC(C)C[C@H](NC(=O)[C@H](Cc1ccc(O)cc1)NC(=O)[C@@H]1CSCC(=O)N[C@H](Cc2ccc(O)cc2)C(=O)N[C@@H](C(C)C)C(=O)N[C@@H](Cc2ccc(O)cc2)C(=O)N2CCC[C@H]2C(=O)NCC(=O)N[C@@H](CC(=O)O)C(=O)N[C@@H](Cc2ccc(O)cc2)C(=O)N1)C(=O)N[C@@H](Cc1ccc(O)cc1)C(N)=O` [Ce-2d D2V], the 50% inhibitory concentration (IC50) is 5.77e-07 M. Regarding `CC(C)C[C@H](NC(=O)[C@H](Cc1ccc(O)cc1)NC(=O)[C@@H]1CSCC(=O)N[C@H](Cc2ccc(O)cc2)C(=O)N[C@@H](CC(=O)O)C(=O)N[C@@H](Cc2ccc(O)cc2)C(=O)N2CCC[C@H]2C(=O)NCC(=O)N[C@@H](CC(N)=O)C(=O)N[C@@H](Cc2ccc(O)cc2)C(=O)N1)C(=O)N[C@@H](Cc1ccc(O)cc1)C(N)=O` [Ce-2d D6N], the half-maximal inhibitory concentration (IC50) was found to be 6.18e-06 M.

`CC(C)C[C@H](NC(=O)[C@H](Cc1ccc(O)cc1)NC(=O)[C@@H]1CSCC(=O)N[C@H](Cc2ccc(O)cc2)C(=O)N[C@@H](CC(=O)O)C(=O)N[C@@H](Cc2ccc(O)cc2)C(=O)N2CCC[C@H]2C(=O)N[C@@H](CCC(N)=O)C(=O)N[C@@H](CC(=O)O)C(=O)N[C@@H](Cc2ccc(O)cc2)C(=O)N1)C(=O)N[C@@H](Cc1ccc(O)cc1)C(N)=O` [Ce-2d G5Q] came in with an IC50 of 5.99e-06 M. The molecule `CC(C)[C@H](NC(=O)[C@H](Cc1ccc(O)cc1)NC(=O)[C@@H]1CSCC(=O)N[C@H](Cc2ccc(O)cc2)C(=O)N[C@@H](CC(=O)O)C(=O)N[C@@H](Cc2ccc(O)cc2)C(=O)N2CCC[C@H]2C(=O)NCC(=O)N[C@@H](CC(=O)O)C(=O)N[C@@H](Cc2ccc(O)cc2)C(=O)N1)C(=O)N[C@@H](Cc1ccc(O)cc1)C(N)=O` [Ce-2d L10V] yielded a concentration for half-maximal inhibition (IC50) of 1.93e-06 M. `CC(C)C[C@H](NC(=O)[C@H](Cc1ccc(O)cc1)NC(=O)[C@@H]1CSCC(=O)N[C@H](Cc2ccc(O)cc2)C(=O)N[C@@H](CC(=O)O)C(=O)N[C@@H](Cc2ccc(O)cc2)C(=O)N[C@@H](C)C(=O)NCC(=O)N[C@@H](CC(=O)O)C(=O)N[C@@H](Cc2ccc(O)cc2)C(=O)N1)C(=O)N[C@@H](Cc1ccc(O)cc1)C(N)=O` [Ce-2d P4A] yielded a half-inhibitory concentration (IC50) of 7.94e-08 M. On to `CC(C)C[C@H](NC(=O)[C@H](Cc1ccc(O)cc1)NC(=O)[C@@H]1CSCC(=O)N[C@@H](Cc2ccc(F)cc2)C(=O)N[C@@H](CC(=O)O)C(=O)N[C@@H](Cc2ccc(O)cc2)C(=O)N2CCC[C@H]2C(=O)NCC(=O)N[C@@H](CC(=O)O)C(=O)N[C@@H](Cc2ccc(O)cc2)C(=O)N1)C(=O)N[C@@H](Cc1ccc(O)cc1)C(N)=O` [Ce-2d Y1(4F)F], for which the IC50 worked out at 5.35e-08 M. On to `CC(C)C[C@H](NC(=O)[C@H](Cc1ccc(O)cc1)NC(=O)[C@@H]1CSCC(=O)N[C@H](Cc2ccc(F)cc2)C(=O)N[C@@H](CC(=O)O)C(=O)N[C@@H](Cc2ccc(O)cc2)C(=O)N2CCC[C@H]2C(=O)NCC(=O)N[C@@H](CC(=O)O)C(=O)N[C@@H](Cc2ccc(O)cc2)C(=O)N1)C(=O)N[C@@H](Cc1ccc(O)cc1)C(N)=O` [Ce-2d Y1D(4F)F], for which the IC50 came out at 3.7e-08 M. `CC(C)C[C@H](NC(=O)[C@H](Cc1ccc(O)cc1)NC(=O)[C@@H]1CSCC(=O)N[C@H](Cc2ccc(O)cc2)C(=O)N[C@@H](CC(=O)O)C(=O)N[C@@H](Cc2ccc(F)cc2)C(=O)N2CCC[C@H]2C(=O)NCC(=O)N[C@@H](CC(=O)O)C(=O)N[C@@H](Cc2ccc(O)cc2)C(=O)N1)C(=O)N[C@@H](Cc1ccc(O)cc1)C(N)=O` [Ce-2d Y3(4F)F] had an IC50 of 1.48e-07 M. `CC(C)C[C@H](NC(=O)[C@H](Cc1ccc(O)cc1)NC(=O)[C@@H]1CSCC(=O)N[C@H](Cc2ccc(O)cc2)C(=O)N[C@@H](CC(=O)O)C(=O)N[C@@H](Cc2ccccc2)C(=O)N2CCC[C@H]2C(=O)NCC(=O)N[C@@H](CC(=O)O)C(=O)N[C@@H](Cc2ccc(O)cc2)C(=O)N1)C(=O)N[C@@H](Cc1ccc(O)cc1)C(N)=O` [Ce-2d Y3F]: the half-inhibitory concentration (IC50) stood at 3.2e-06 M.

`CC(C)C[C@H](NC(=O)[C@H](Cc1ccc(O)cc1)NC(=O)[C@@H]1CSCC(=O)N[C@H](Cc2ccc(O)cc2)C(=O)N[C@@H](CC(=O)O)C(=O)N[C@@H](Cc2c[nH]c3ccccc23)C(=O)N2CCC[C@H]2C(=O)NCC(=O)N[C@@H](CC(=O)O)C(=O)N[C@@H](Cc2ccc(O)cc2)C(=O)N1)C(=O)N[C@@H](Cc1ccc(O)cc1)C(N)=O` [Ce-2d Y3W] had a 50% inhibitory concentration (IC50) of 7.09e-06 M. `COc1ccc(C[C@@H]2NC(=O)[C@H](CC(=O)O)NC(=O)CNC(=O)[C@@H]3CCCN3C(=O)[C@H](Cc3ccc(O)cc3)NC(=O)[C@H](CC(=O)O)NC(=O)[C@@H](Cc3ccc(O)cc3)NC(=O)CSC[C@@H](C(=O)N[C@@H](Cc3ccc(O)cc3)C(=O)N[C@@H](CC(C)C)C(=O)N[C@@H](Cc3ccc(O)cc3)C(N)=O)NC2=O)cc1` [Ce-2d Y7(4OMe)F] displayed an IC50 of 6.79e-08 M. Turning to `CC(C)C[C@H](NC(=O)[C@H](Cc1ccc(O)cc1)NC(=O)[C@@H]1CSCC(=O)N[C@H](Cc2ccc(O)cc2)C(=O)N[C@@H](CC(=O)O)C(=O)N[C@@H](Cc2ccc(O)cc2)C(=O)N2CCC[C@H]2C(=O)NCC(=O)N[C@@H](CC(=O)O)C(=O)N[C@@H](CO)C(=O)N1)C(=O)N[C@@H](Cc1ccc(O)cc1)C(N)=O` [Ce-2d Y7S], the half-inhibitory concentration (IC50) came out at 1.78e-07 M. In turn, `CC(C)C[C@H](NC(=O)[C@H](Cc1ccc(F)cc1)NC(=O)[C@@H]1CSCC(=O)N[C@H](Cc2ccc(O)cc2)C(=O)N[C@@H](CC(=O)O)C(=O)N[C@@H](Cc2ccc(O)cc2)C(=O)N2CCC[C@H]2C(=O)NCC(=O)N[C@@H](CC(=O)O)C(=O)N[C@@H](Cc2ccc(O)cc2)C(=O)N1)C(=O)N[C@@H](Cc1ccc(O)cc1)C(N)=O` [Ce-2d Y9(4F)F] gave a half-maximal inhibitory concentration (IC50) of 3.33e-07 M. Then `COc1ccc(C[C@H](NC(=O)[C@@H]2CSCC(=O)N[C@H](Cc3ccc(O)cc3)C(=O)N[C@@H](CC(=O)O)C(=O)N[C@@H](Cc3ccc(O)cc3)C(=O)N3CCC[C@H]3C(=O)NCC(=O)N[C@@H](CC(=O)O)C(=O)N[C@@H](Cc3ccc(O)cc3)C(=O)N2)C(=O)N[C@@H](CC(C)C)C(=O)N[C@@H](Cc2ccc(O)cc2)C(N)=O)cc1` [Ce-2d Y9(4OMe)F], with 2.04e-06 M; and `CC(C)C[C@H](NC(=O)[C@H](Cc1ccccc1)NC(=O)[C@@H]1CSCC(=O)N[C@H](Cc2ccc(O)cc2)C(=O)N[C@@H](CC(=O)O)C(=O)N[C@@H](Cc2ccc(O)cc2)C(=O)N2CCC[C@H]2C(=O)NCC(=O)N[C@@H](CC(=O)O)C(=O)N[C@@H](Cc2ccc(O)cc2)C(=O)N1)C(=O)N[C@@H](Cc1ccc(O)cc1)C(N)=O` [Ce-2d Y9F], with 1.43e-05 M; and `CC(C)C[C@H](NC(=O)[C@H](Cc1ccc(O)cc1)NC(=O)[C@@H]1CSCC(=O)N[C@H](Cc2ccc(O)cc2)C(=O)N[C@@H](CC(=O)O)C(=O)N[C@@H](Cc2ccc(O)cc2)C(=O)N2CCC[C@H]2C(=O)NCC(=O)N[C@@H](CC(=O)O)C(=O)N[C@@H](Cc2ccc(O)cc2)C(=O)N1)C(=O)N[C@@H](Cc1ccc(F)cc1)C(N)=O` [Ce-2d Y11(4F)F], with 7.11e-08 M. The molecule `CC(C)C[C@H](NC(=O)[C@H](Cc1ccc(O)cc1)NC(=O)[C@@H]1CSCC(=O)N[C@H](Cc2ccc(O)cc2)C(=O)N[C@@H](CC(=O)O)C(=O)N[C@@H](Cc2ccc(O)cc2)C(=O)N2CCC[C@H]2C(=O)NCC(=O)N[C@@H](CC(=O)O)C(=O)N[C@@H](Cc2ccc(O)cc2)C(=O)N1)C(=O)N[C@@H](Cc1ccc(O)cc1)C(=O)O` [Ce-2d Y11COOH] showed an IC50 of 7.75e-07 M. For `CC(C)C[C@H](NC(=O)[C@H](Cc1ccc(O)cc1)NC(=O)[C@@H]1CSCC(=O)N[C@H](Cc2ccc(O)cc2)C(=O)N[C@@H](CC(=O)O)C(=O)N[C@@H](Cc2ccc(O)cc2)C(=O)N2CCC[C@H]2C(=O)NCC(=O)N[C@@H](CC(=O)O)C(=O)N[C@@H](Cc2ccc(O)cc2)C(=O)N1)C(=O)N[C@@H](Cc1ccccc1)C(N)=O` [Ce-2d Y11F] the value was 9.89e-08 M.

Regarding `CC(C)C[C@H](NC(=O)[C@H](CC(C)C)NC(=O)[C@H](Cc1ccc(O)cc1)NC(=O)[C@@H]1CSCC(=O)N[C@H](Cc2ccc(O)cc2)C(=O)N[C@@H](CC(=O)O)C(=O)N[C@@H](Cc2ccc(O)cc2)C(=O)N2CCC[C@H]2C(=O)NCC(=O)N[C@@H](CC(=O)O)C(=O)N[C@@H](Cc2ccc(O)cc2)C(=O)N1)C(N)=O` [Ce-2d Y11L], it took 2.43e-07 M to reach half-maximal inhibition (IC50).
